Assay results reported in the supplement of paper PMC10307832.

What was measured:
Assay in all cases: relative viability (nuclei count vs DMSO), 5 days (fraction); higher = more cells survive
[1] = compound: C[C@@H](C(=O)N[C@@H](C1CCCCC1)C(=O)N2CCC[C@H]2C(=O)N[C@@H]3[C@@H](CC4=CC=CC=C34)OCC#CC#CCO[C@@H]5CC6=CC=CC=C6[C@@H]5NC(=O)[C@@H]7CCCN7C(=O)[C@H](C8CCCCC8)NC(=O)[C@H](C)NC)NC [AZD5582] + CC1(C)CCC(c2ccc(Cl)cc2)=C(CN2CCN(c3ccc(C(=O)NS(=O)(=O)c4ccc(N[C@H](CCN5CCOCC5)CSc5ccccc5)c(S(=O)(=O)C(F)(F)F)c4)cc3)CC2)C1 [Navitoclax] (partner 0.5 µM)
Procedure, shortened: (§1)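 Cells from lung cancer lines were seeded into 1536-well plates and, one day later, dosed by pin tool. Treatments were either a single drug or a fixed dose of an anchor drug with five library-drug doses (not always all listed) in √10 steps. After 5 days, nuclei were stained in a one-step fixation (final 0.05% Triton X-100, 1% formaldehyde, 1 ug/ml Hoechst) and counted on 4× images, and relative viability is the treated-to-vehicle nuclei ratio, as the median of duplicate plates.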

[2] = compound: C[C@@H](C(=O)N[C@@H](C1CCCCC1)C(=O)N2CCC[C@H]2C(=O)N[C@@H]3[C@@H](CC4=CC=CC=C34)OCC#CC#CCO[C@@H]5CC6=CC=CC=C6[C@@H]5NC(=O)[C@@H]7CCCN7C(=O)[C@H](C8CCCCC8)NC(=O)[C@H](C)NC)NC [AZD5582] + N=C(N)NC(=N)NCCc1ccccc1 [Phenformin] (partner 250 µM)
Procedure, shortened: as §1

[3] = compound: Cn1nnc2c(C(N)=O)ncn2c1=O [Temozolomide] + CCNC(=O)c1noc(-c2cc(C(C)C)c(O)cc2O)c1-c1ccc(CN2CCOCC2)cc1 [Luminespib] (partner 0.01 µM)
Procedure, shortened: as §1

[4] = compound: Cn1nnc2c(C(N)=O)ncn2c1=O [Temozolomide] + Cc1nc(NC(=O)N2CCC[C@H]2C(N)=O)sc1-c1ccnc(C(C)(C)C(F)(F)F)c1 [Alpelisib] (partner 2 µM)
Procedure, shortened: as §1

| Cell Line | relative viability ([1]; first compound 0.001581 µM) | relative viability ([1]; first compound 0.005 µM) | relative viability ([1]; first compound 0.05 µM) | relative viability ([2]; first compound 0.001581 µM) | relative viability ([2]; first compound 0.005 µM) | relative viability ([2]; first compound 0.01581 µM) | relative viability ([2]; first compound 0.05 µM) | relative viability ([3]; first compound 0.2 µM) | relative viability ([3]; first compound 0.6325 µM) | relative viability ([3]; first compound 2 µM) | relative viability ([3]; first compound 6.325 µM) | relative viability ([3]; first compound 20 µM) | relative viability ([4]; first compound 0.2 µM) | relative viability ([4]; first compound 0.6325 µM) | relative viability ([4]; first compound 2 µM) | relative viability ([4]; first compound 6.325 µM) | relative viability ([4]; first compound 20 µM) | relative viability ([1]; first compound 0.01581 µM) |
| --- | --- | --- | --- | --- | --- | --- | --- | --- | --- | --- | --- | --- | --- | --- | --- | --- | --- | --- |
| NCI-H1395 | 1.02 | 1.16 | 1.49 | 0.5 | 0.476 | 0.412 | 0.45 | 0.51 | 0.67 | 0.703 | 0.65 | 0.6 | 1.15 | 1.07 | 1.13 | 1 | 1.06 |  |
| NCI-H1437 | 1.07 | 1.09 | 1.04 | 0.251 | 0.279 | 0.254 | 0.365 | 1.1 | 1.09 | 1.12 | 1.12 | 1.11 | 1.03 | 0.922 | 0.957 | 0.953 | 1.05 | 1.05 |
| NCI-H1651 | 0.981 | 1 | 1.14 | 0.353 | 0.339 |  | 0.435 | 0.956 | 0.935 | 0.578 | 0.662 | 1.05 | 0.966 | 0.941 | 1.03 | 0.93 | 0.92 | 1.21 |
| NCI-H1666 | 0.823 | 0.859 | 0.837 | 0.532 | 0.544 | 0.557 | 0.609 | 0.976 | 0.993 | 0.874 | 0.677 | 0.701 | 0.925 | 0.951 | 0.808 | 0.586 | 0.499 | 1.11 |
| NCI-H1734 | 0.791 | 0.866 | 0.954 | 0.418 | 0.516 | 0.37 | 0.455 | 0.285 | 0.183 | 0.237 | 0.201 | 0.194 | 0.7 | 0.638 | 0.747 | 0.646 | 0.659 | 0.886 |
| NCI-H1755 | 0.933 | 0.973 | 1 | 0.578 | 0.666 | 0.502 | 0.576 | 0.176 | 0.5 | 0.435 | 0.387 | 0.304 | 0.972 | 0.952 | 0.853 | 0.881 | 0.59 | 1.01 |
| NCI-H1792 | 0.608 | 0.632 | 0.836 |  | 0.323 |  | 1.12 | 0.412 | 0.436 | 0.44 | 0.493 | 0.508 | 0.535 | 0.749 | 0.677 | 0.651 | 0.791 | 0.578 |
| NCI-H1793 | 0.475 | 0.453 | 0.465 | 0.295 | 0.404 | 0.306 | 0.264 |  | 0.151 | 0.309 | 0.189 | 0.186 |  | 0.714 | 0.881 | 0.716 | 0.585 | 0.476 |
| NCI-H1915 | 0.777 | 0.757 | 0.746 | 0.358 | 0.361 | 0.342 | 0.367 | 0.963 | 0.761 | 0.616 | 0.429 | 0.313 | 1.05 | 1.02 | 0.905 | 0.625 | 0.335 | 0.793 |
